How the values were obtained:
[1] = target: T1, Aldehyde dehydrogenase, cytosolic 1 (Rattus norvegicus, UniProt P13601); test: Inhibition of Sprague-Dawley rat cytosolic aldehyde dehydrogenase
T1 sequence (P13601 whole entry): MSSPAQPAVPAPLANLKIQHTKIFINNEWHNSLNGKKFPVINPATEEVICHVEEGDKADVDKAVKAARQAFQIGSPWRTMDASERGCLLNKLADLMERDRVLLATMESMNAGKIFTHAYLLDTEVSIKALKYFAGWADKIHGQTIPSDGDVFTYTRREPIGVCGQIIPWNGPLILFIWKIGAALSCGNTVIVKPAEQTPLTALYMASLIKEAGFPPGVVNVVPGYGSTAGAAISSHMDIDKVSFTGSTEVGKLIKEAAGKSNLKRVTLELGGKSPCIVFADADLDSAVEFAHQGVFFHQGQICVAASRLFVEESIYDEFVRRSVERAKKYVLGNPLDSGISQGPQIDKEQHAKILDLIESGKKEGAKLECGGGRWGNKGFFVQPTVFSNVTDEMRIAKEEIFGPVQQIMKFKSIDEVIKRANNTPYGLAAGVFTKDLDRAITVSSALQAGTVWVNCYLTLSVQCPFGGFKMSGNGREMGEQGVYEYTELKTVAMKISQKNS

[2] = target: T2, Aldehyde dehydrogenase, mitochondrial (Rattus norvegicus, UniProt P11884); test: Inhibition of Sprague-Dawley rat mitochondrial aldehyde dehydrogenase
T2 sequence (P11884 whole entry): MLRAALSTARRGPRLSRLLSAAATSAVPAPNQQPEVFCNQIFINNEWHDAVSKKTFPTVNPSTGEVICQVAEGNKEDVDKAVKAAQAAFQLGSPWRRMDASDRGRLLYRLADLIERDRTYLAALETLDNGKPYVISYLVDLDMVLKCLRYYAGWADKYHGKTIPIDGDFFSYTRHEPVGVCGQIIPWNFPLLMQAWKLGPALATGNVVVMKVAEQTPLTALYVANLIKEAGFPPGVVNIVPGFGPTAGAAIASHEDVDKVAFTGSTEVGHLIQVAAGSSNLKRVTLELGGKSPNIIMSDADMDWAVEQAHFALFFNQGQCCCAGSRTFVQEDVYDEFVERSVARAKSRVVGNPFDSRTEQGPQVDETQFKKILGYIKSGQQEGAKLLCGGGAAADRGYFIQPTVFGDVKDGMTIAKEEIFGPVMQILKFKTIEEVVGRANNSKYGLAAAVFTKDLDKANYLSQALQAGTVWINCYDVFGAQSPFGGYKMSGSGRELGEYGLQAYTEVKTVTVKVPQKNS

[3] = Inhibition of Sprague-Dawley rat cytosolic alcohol dehydrogenase

| IC50 [1] | IC50 [2] | IC50 [3] | SMILES |
| --- | --- | --- | --- |
| 300 µM | 5.6 µM |  | C#CCN(C)Cc1ccccc1 [PARGYLINE] |
| 0.53 µM | 0.72 µM | 0.011 µM | O=C1c2cc(CO)cc(O)c2C(=O)c2c1ccc(C1(C3O[C@H](CO)[C@@H](O)[C@H](O)[C@H]3O)c3cccc(O)c3C(=O)c3c(O)cc(CO)cc31)c2O (stereo partly drawn) [listing 1 of 2 here] |
| 27 µM |  | 33.1 µM | COc1cc(-c2c(C)cc(O)cc2O[C@@H]2O[C@@H](CO)[C@@H](O)[C@H](O)[C@H]2O)oc(=O)c1 [ALOENIN] |
| 0.16 µM | 0.36 µM | 0.055 µM | O=C1c2cc(CO)cc(O)c2C(=O)c2c1ccc(C1(C3O[C@H](CO)[C@@H](O)[C@H](O)[C@H]3O)c3cccc(O)c3C(=O)c3c(O)cc(CO)cc31)c2O (stereo partly drawn) [listing 2 of 2 here] |
|  |  | 9.8 µM | c1cn[nH]c1 [PYRAZOLE] |

| SMILES | IC50 [1] | IC50 [2] | IC50 [3] |
| --- | --- | --- | --- |
| O=C1c2cccc(O)c2C(=O)c2c(O)cc(CO)cc21 [ALOE-EMODIN] | 6 µM |  | 24.4 µM |
